Experimental findings from PMC5218480 (PLoS ONE, 2017) are described below.

Molecules are shown by their SMILES.

For the assay, the system named is MV-4-11 cells. Briefly: Gene expression microarray analysis (Affymetrix PrimeView) and GSEA. Format: cell-based, human. On the set-up: RFU PODN (11730768_x_at) / Fold change /veh PODN (11730768_x_at) / RFU LINC00158 (11744669_a_at) / Fold change /veh LINC00158 (11744669_a_at) / RFU DUSP10 (11751237_a_at) / Fold change /veh DUSP10 (11751237_a_at) / RFU ID3 (11757404_x_at) / Fold change /veh ID3 (11757404_x_at) / RFU PLEKHG5 (11737974_s_at) / Fold change /veh PLEKHG5 (11737974_s_at) / RFU LRRC4B (11730491_at) / Fold change /veh LRRC4B (11730491_at) / RFU GIMAP4 (11747438_a_at) / Fold change /veh GIMAP4 (11747438_a_at) / RFU KRT8 (11758183_x_at) / Fold change /veh KRT8 (11758183_x_at) / RFU CNN1 (11734310_a_at) / Fold change /veh CNN1 (11734310_a_at) / RFU VPS37D (11726825_at) / Fold change /veh VPS37D (11726825_at) / RFU C10orf10 (11716522_x_at) / Fold change /veh C10orf10 (11716522_x_at) / RFU KIR2DL2 /// KIR2DL4 /// KIR2DL5A /// KIR2DL5B /// KIR2DS1 /// KIR2DS2 /// KIR2DS3 /// KIR2DS4 /// KIR3DL3 /// KIR3DL3 /// KIR3DS1 (11738374_at) / Fold change /veh KIR2DL2 /// KIR2DL4 /// KIR2DL5A /// KIR2DL5B /// KIR2DS1 /// KIR2DS2 /// KIR2DS3 /// KIR2DS4 /// KIR3DL3 /// KIR3DL3 /// KIR3DS1 (11738374_at) / RFU C1QL1 (11718748_at) / Fold change /veh C1QL1 (11718748_at) / RFU TMPRSS4 (11747572_a_at) / Fold change /veh TMPRSS4 (11747572_a_at) / RFU HAMP (11756126_x_at) / Fold change /veh HAMP (11756126_x_at) / RFU RNFT2 (11725882_a_at) / Fold change /veh RNFT2 (11725882_a_at) / RFU NR4A2 (11747474_a_at) / Fold change /veh NR4A2 (11747474_a_at) / RFU ABCC12 (11746883_a_at) / Fold change /veh ABCC12 (11746883_a_at) / RFU TMEM136 (11760407_x_at) / Fold change /veh TMEM136 (11760407_x_at) / RFU CLDN22 /// WWC2 (11732394_at) / Fold change /veh CLDN22 /// WWC2 (11732394_at) / RFU HLA-DPB1 (11760878_x_at) / Fold change /veh HLA-DPB1 (11760878_x_at) / RFU SPINT1 (11716480_a_at) / Fold change /veh SPINT1 (11716480_a_at) / RFU GAP43 (11754022_s_at) / Fold change /veh GAP43 (11754022_s_at) / RFU A4GNT (11735810_at) / Fold change /veh A4GNT (11735810_at) / RFU PRB3 (11715151_x_at) / Fold change /veh PRB3 (11715151_x_at) / RFU TUBB4B (11761932_at) / Fold change /veh TUBB4B (11761932_at) / RFU CAPN14 (11732068_a_at) / Fold change /veh CAPN14 (11732068_a_at) / RFU TMCC2 (11721928_a_at) / Fold change /veh TMCC2 (11721928_a_at) / RFU IRGQ (11745062_a_at) / Fold change /veh IRGQ (11745062_a_at) / RFU FAM174B (11720279_a_at) / Fold change /veh FAM174B (11720279_a_at) / RFU TMPRSS4 (11748680_a_at) / Fold change /veh TMPRSS4 (11748680_a_at) / RFU FAM212B (11763350_a_at) / Fold change /veh FAM212B (11763350_a_at) / RFU PLEKHG5 (11743358_a_at) / Fold change /veh PLEKHG5 (11743358_a_at) / RFU ZSCAN30 (11745921_a_at) / Fold change /veh ZSCAN30 (11745921_a_at) / RFU CMKLR1 (11741424_a_at) / Fold change /veh CMKLR1 (11741424_a_at) / RFU LOC101060620 /// MAPK8IP1 (11723275_at) / Fold change /veh LOC101060620 /// MAPK8IP1 (11723275_at) / RFU SPTSSB (11747773_x_at) / Fold change /veh SPTSSB (11747773_x_at) / RFU PRSS12 (11739890_at) / Fold change /veh PRSS12 (11739890_at) / RFU BIN1 (11741810_x_at) / Fold change /veh BIN1 (11741810_x_at) / RFU WNT11 (11732464_a_at) / Fold change /veh WNT11 (11732464_a_at) / RFU C10orf10 (11716521_a_at) / Fold change /veh C10orf10 (11716521_a_at) / RFU C5orf56 (11738089_at) / Fold change /veh C5orf56 (11738089_at) / RFU CYB561 (11721691_x_at) / Fold change /veh CYB561 (11721691_x_at) / RFU ANKRD19P (11752326_a_at) / Fold change /veh ANKRD19P (11752326_a_at) / RFU OR2T12 /// OR2T33 /// OR2T8 (11738714_s_at) / Fold change /veh OR2T12 /// OR2T33 /// OR2T8 (11738714_s_at) / RFU VCAN (11748164_a_at) / Fold change /veh VCAN (11748164_a_at) / RFU JSRP1 (11732532_at) / Fold change /veh JSRP1 (11732532_at) / RFU KRTAP10-11 (11738290_x_at) / Fold change /veh KRTAP10-11 (11738290_x_at) / RFU MYO3A (11730013_a_at) / Fold change /veh MYO3A (11730013_a_at) / RFU EBF3 (11725865_a_at) / Fold change /veh EBF3 (11725865_a_at) / RFU CAMK2N1 (11719241_x_at) / Fold change /veh CAMK2N1 (11719241_x_at) / RFU C5orf56 (11738088_a_at) / Fold change /veh C5orf56 (11738088_a_at) / RFU OLFML3 (11715873_a_at) / Fold change /veh OLFML3 (11715873_a_at) / RFU LOC100653217 /// NTM (11731650_a_at) / Fold change /veh LOC100653217 /// NTM (11731650_a_at) / RFU MAPK11 (11762145_a_at) / Fold change /veh MAPK11 (11762145_a_at) / RFU FIZ1 (11724087_x_at) / Fold change /veh FIZ1 (11724087_x_at) / RFU OASL (11726364_x_at) / Fold change /veh OASL (11726364_x_at) / RFU SOX15 (11748057_x_at) / Fold change /veh SOX15 (11748057_x_at) / RFU CD79A (11719716_a_at) / Fold change /veh CD79A (11719716_a_at) / RFU HIST1H1D (11736915_at) / Fold change /veh HIST1H1D (11736915_at) / RFU CASKIN2 (11723855_a_at) / Fold change /veh CASKIN2 (11723855_a_at) / RFU LOC730098 (11760151_x_at) / Fold change /veh LOC730098 (11760151_x_at) / RFU OR4N2 (11742367_at) / Fold change /veh OR4N2 (11742367_at) / RFU PRRT2 (11749266_a_at) / Fold change /veh PRRT2 (11749266_a_at) / RFU SNX32 (11753110_a_at) / Fold change /veh SNX32 (11753110_a_at) / RFU CDHR5 (11726645_a_at) / Fold change /veh CDHR5 (11726645_a_at) / RFU RCAN1 (11760418_a_at) / Fold change /veh RCAN1 (11760418_a_at) / RFU FAM167A (11723789_a_at) / Fold change /veh FAM167A (11723789_a_at) / RFU FAM26E (11764081_at) / Fold change /veh FAM26E (11764081_at) / RFU ISYNA1 (11749810_s_at) / Fold change /veh ISYNA1 (11749810_s_at) / RFU ACY1 (11761880_at) / Fold change /veh ACY1 (11761880_at) / RFU 11764098_at / Fold change /veh 11764098_at / RFU SAMD14 (11745864_x_at) / Fold change /veh SAMD14 (11745864_x_at) / RFU NPB (11741838_a_at) / Fold change /veh NPB (11741838_a_at) / RFU TMPRSS6 (11731388_a_at) / Fold change /veh TMPRSS6 (11731388_a_at) / RFU KRTAP10-2 (11738614_at) / Fold change /veh KRTAP10-2 (11738614_at) / RFU ARHGAP8 /// PRR5-ARHGAP8 (11727945_x_at) / Fold change /veh ARHGAP8 /// PRR5-ARHGAP8 (11727945_x_at) / RFU KRTAP5-7 /// NADSYN1 (11734609_at) / Fold change /veh KRTAP5-7 /// NADSYN1 (11734609_at) / RFU RASL12 (11751679_a_at) / Fold change /veh RASL12 (11751679_a_at) / RFU CDKN2B (11736163_a_at) / Fold change /veh CDKN2B (11736163_a_at) / RFU PRF1 (11729649_at) / Fold change /veh PRF1 (11729649_at) / RFU, ZNF638 /// ZNF638-IT1 / Fold change vs veh, ZNF638 /// ZNF638-IT1 / RFU, PANK3 / Fold change vs veh, PANK3 / RFU, SH3YL1 / Fold change vs veh, SH3YL1 / RFU, ZEB2 / Fold change vs veh, ZEB2 / RFU, NRIP1 / Fold change vs veh, NRIP1 / RFU, PTTG1IP / Fold change vs veh, PTTG1IP / RFU, CAPN2 / Fold change vs veh, CAPN2 / RFU, MED14 / Fold change vs veh, MED14 / RFU, SNORA58 / Fold change vs veh, SNORA58 / RFU, C1orf63 / Fold change vs veh, C1orf63 / RFU, LRRFIP1 / Fold change vs veh, LRRFIP1 / RFU, NDUFAF7 / Fold change vs veh, NDUFAF7 / RFU, SLC12A2 / Fold change vs veh, SLC12A2 / RFU, IBTK / Fold change vs veh, IBTK / RFU, ESF1 / Fold change vs veh, ESF1 / Fold change vs veh, TMEM50B / RFU, TAOK1 / Fold change vs veh, TAOK1 / RFU, ACBD3 / Fold change vs veh, ACBD3 / RFU, TMA16 / Fold change vs veh, TMA16 / RFU, RWDD3 / Fold change vs veh, RWDD3 / RFU, BCAT1 / Fold change vs veh, BCAT1 / RFU, EDEM3 / Fold change vs veh, EDEM3 / RFU, TMEM33 / Fold change vs veh, TMEM33 / RFU, WDR75 / Fold change vs veh, WDR75 / RFU, AHCTF1 / Fold change vs veh, AHCTF1 / RFU, TFRC / Fold change vs veh, TFRC / RFU, ZDHHC17 / Fold change vs veh, ZDHHC17 / RFU, NOM1 / Fold change vs veh, NOM1 / RFU, ARL8B / Fold change vs veh, ARL8B / RFU, ZBTB11 / Fold change vs veh, ZBTB11 / RFU, TAMM41 / Fold change vs veh, TAMM41 / RFU, KIAA1704 /// LOC100996395 / Fold change vs veh, KIAA1704 /// LOC100996395 / RFU, ING1 / Fold change vs veh, ING1 / RFU, TRMT61B / Fold change vs veh, TRMT61B / RFU, FUBP3 / Fold change vs veh, FUBP3 / RFU, TP53 / Fold change vs veh, TP53 / RFU, TNKS2 / Fold change vs veh, TNKS2 / RFU, ZFP14 / Fold change vs veh, ZFP14 / RFU, ACTR2 / Fold change vs veh, ACTR2 / RFU, PPP3R1 / Fold change vs veh, PPP3R1 / RFU, PIK3R1 / Fold change vs veh, PIK3R1 / RFU, HNRNPA1 / Fold change vs veh, HNRNPA1 / RFU, RNF170 / Fold change vs veh, RNF170 / RFU, ZNF28 / Fold change vs veh, ZNF28 / RFU, RNGTT / Fold change vs veh, RNGTT / RFU, OGT / Fold change vs veh, OGT / RFU, BRD1 / Fold change vs veh, BRD1 / RFU, MARS / Fold change vs veh, MARS / RFU, ZNF655 / Fold change vs veh, ZNF655 / RFU, FAHD1 / Fold change vs veh, FAHD1 / RFU, BDP1 / Fold change vs veh, BDP1 / RFU, LRRCC1 / Fold change vs veh, LRRCC1 / RFU, ARID1A / Fold change vs veh, ARID1A / RFU, ZNF146 / Fold change vs veh, ZNF146 / RFU, ZNF330 / Fold change vs veh, ZNF330 / RFU, GPN3 / Fold change vs veh, GPN3 / RFU, C9orf123 / Fold change vs veh, C9orf123 / RFU, N4BP2L2 / Fold change vs veh, N4BP2L2 / RFU, ARFIP1 / Fold change vs veh, ARFIP1 / RFU, FAM179B / Fold change vs veh, FAM179B / RFU, BCL10 / Fold change vs veh, BCL10 / RFU, UHRF1BP1L / Fold change vs veh, UHRF1BP1L / RFU, BET1 / Fold change vs veh, BET1 / RFU, CNOT2 / Fold change vs veh, CNOT2 / RFU, ZNF268 / Fold change vs veh, ZNF268 / Fold change vs veh, ZNF507 / RFU, DGCR2 / Fold change vs veh, DGCR2 / RFU, WDSUB1 / Fold change vs veh, WDSUB1 / Fold change vs veh, HSP90B1 /// MIR3652 / RFU, ADSS / Fold change vs veh, ADSS / RFU, GK / Fold change vs veh, GK / RFU, ZNF148 / Fold change vs veh, ZNF148 / RFU, TAF9 / Fold change vs veh, TAF9 / RFU, SLC1A5 / Fold change vs veh, SLC1A5 / RFU, SLMO2 / Fold change vs veh, SLMO2 / RFU, ABCC4 / Fold change vs veh, ABCC4 / RFU, LOC101060439 /// RAP1B / Fold change vs veh, LOC101060439 /// RAP1B / RFU, RFX7 / Fold change vs veh, RFX7 / RFU, GTPBP10 / Fold change vs veh, GTPBP10 / RFU, CNEP1R1 / Fold change vs veh, CNEP1R1 / RFU, BIVM-ERCC5 /// ERCC5 / Fold change vs veh, BIVM-ERCC5 /// ERCC5 / RFU, ILF3 / Fold change vs veh, ILF3 / RFU 11762660_at / Fold change /veh 11762660_at / RFU VCAN (11757783_s_at) / Fold change /veh VCAN (11757783_s_at) / RFU DDX43 (11728927_at) / Fold change /veh DDX43 (11728927_at) / RFU KRT8 (11758188_x_at) / Fold change /veh KRT8 (11758188_x_at) / RFU NKD1 (11759106_at) / Fold change /veh NKD1 (11759106_at) / RFU SRD5A1 (11742802_a_at) / Fold change /veh SRD5A1 (11742802_a_at) / RFU TPSAB1 /// TPSB2 (11721975_s_at) / Fold change /veh TPSAB1 /// TPSB2 (11721975_s_at) / RFU GSTM3 (11746129_a_at) / Fold change /veh GSTM3 (11746129_a_at) / RFU IL23R (11737362_x_at) / Fold change /veh IL23R (11737362_x_at) / RFU TMEM51 (11727254_a_at) / Fold change /veh TMEM51 (11727254_a_at) / RFU PIWIL2 (11732686_x_at) / Fold change /veh PIWIL2 (11732686_x_at) / RFU ORM1 (11744905_x_at) / Fold change /veh ORM1 (11744905_x_at) / RFU CCDC152 (11743942_at) / Fold change /veh CCDC152 (11743942_at) / RFU ECM1 (11717891_a_at) / Fold change /veh ECM1 (11717891_a_at) / RFU IL23R (11748794_a_at) / Fold change /veh IL23R (11748794_a_at) / RFU TNFAIP8L3 (11732012_x_at) / Fold change /veh TNFAIP8L3 (11732012_x_at) / RFU MBOAT4 (11741988_at) / Fold change /veh MBOAT4 (11741988_at) / RFU 11764193_at / Fold change /veh 11764193_at / RFU TMEM53 (11763286_at) / Fold change /veh TMEM53 (11763286_at) / RFU MAGEB2 (11727129_at) / Fold change /veh MAGEB2 (11727129_at) / RFU TMEM200A (11744735_a_at) / Fold change /veh TMEM200A (11744735_a_at) / RFU CCDC152 (11751479_a_at) / Fold change /veh CCDC152 (11751479_a_at) / RFU FAM211A (11726209_a_at) / Fold change /veh FAM211A (11726209_a_at) / RFU RGS16 (11746705_a_at) / Fold change /veh RGS16 (11746705_a_at) / RFU VCAN (11755009_s_at) / Fold change /veh VCAN (11755009_s_at) / RFU RHOB (11743442_s_at) / Fold change /veh RHOB (11743442_s_at) / RFU RGS16 (11720943_a_at) / Fold change /veh RGS16 (11720943_a_at) / RFU RGS16 (11720944_at) / Fold change /veh RGS16 (11720944_at) / RFU, VPS4B / Fold change vs veh, VPS4B / RFU, CREB1 / Fold change vs veh, CREB1 / RFU, DNAJC13 / Fold change vs veh, DNAJC13 / RFU, GNAQ / Fold change vs veh, GNAQ / RFU, CDK5R1 / Fold change vs veh, CDK5R1 / RFU, ZRANB3 / Fold change vs veh, ZRANB3 / RFU, CUL4A / Fold change vs veh, CUL4A / RFU, CCNY / Fold change vs veh, CCNY / RFU, UFL1 / Fold change vs veh, UFL1 / RFU, COG3 / Fold change vs veh, COG3 / RFU, DIAPH2 / Fold change vs veh, DIAPH2 / RFU, SKA2 / Fold change vs veh, SKA2 / RFU, AFF3 / Fold change vs veh, AFF3 / RFU, LMF1 / Fold change vs veh, LMF1 / RFU, IPO11 / Fold change vs veh, IPO11 / RFU, DFFB / Fold change vs veh, DFFB / RFU, FOXP1 / Fold change vs veh, FOXP1 / RFU, CARD8 / Fold change vs veh, CARD8 / RFU, STRN3 / Fold change vs veh, STRN3 / RFU, ADK / Fold change vs veh, ADK / RFU, RASSF2 / Fold change vs veh, RASSF2 / RFU, WIPF1 / Fold change vs veh, WIPF1 / RFU, LARP1B / Fold change vs veh, LARP1B / RFU, RASA1 / Fold change vs veh, RASA1 / RFU, RB1 / Fold change vs veh, RB1 / RFU, PPFIA1 / Fold change vs veh, PPFIA1 / RFU, MAT2A / Fold change vs veh, MAT2A / RFU, CCT5 / Fold change vs veh, CCT5 / RFU, WDR92 / Fold change vs veh, WDR92 / RFU, CUX1 / Fold change vs veh, CUX1 / RFU, TTC7A / Fold change vs veh, TTC7A / RFU, TMEM135 / Fold change vs veh, TMEM135 / RFU, DEPTOR / Fold change vs veh, DEPTOR / RFU, CPM / Fold change vs veh, CPM / RFU, DNAJB6 / Fold change vs veh, DNAJB6 / RFU, CACNA2D3 / Fold change vs veh, CACNA2D3 / RFU, DTX4 / Fold change vs veh, DTX4 / RFU, TFCP2 / Fold change vs veh, TFCP2 / RFU, GMCL1 /// GMCL1P1 / Fold change vs veh, GMCL1 /// GMCL1P1 / RFU, AEBP2 / Fold change vs veh, AEBP2 / RFU, SNHG1 /// SNORD22 /// SNORD25 /// SNORD26 /// SNORD27 /// SNORD28 /// SNORD29 /// SNORD31 / Fold change vs veh, SNHG1 /// SNORD22 /// SNORD25 /// SNORD26 /// SNORD27 /// SNORD28 /// SNORD29 /// SNORD31 / Fold change (Aza/veh), C12orf56 (ProbeSet 11735607_a_at) / Fold change (ACY-1035/veh), C12orf56 (ProbeSet 11735607_a_at) / Fold change (Aza/veh), FGFR1OP (ProbeSet 11751329_s_at) / Fold change (ACY-1035/veh), FGFR1OP (ProbeSet 11751329_s_at) / Fold change (Aza/veh), VPS36 (ProbeSet 11739960_a_at) / Fold change (ACY-1035/veh), VPS36 (ProbeSet 11739960_a_at) / RFU SYPL1 (11715823_x_at) / Fold change /veh SYPL1 (11715823_x_at) / RFU IGFBP7 (11715501_s_at) / Fold change /veh IGFBP7 (11715501_s_at) / RFU REEP3 (11722064_at) / Fold change /veh REEP3 (11722064_at) / RFU IGLL1 (11728026_x_at) / Fold change /veh IGLL1 (11728026_x_at): dose or concentration left out as unconfirmed. Particulars: ProbeSet 11757113_a_at; LIST D.

Turning to `Nc1ccc(-c2cccs2)cc1NC(=O)c1ccc2c(c1)cc(C1CC1)n2CCN1CCOCC1` [ACY-1035], the “RFU, SNHG1 /// SNORD22 /// SNORD25 /// SNORD26 /// SNORD27 /// SNORD28 /// SNORD29 /// SNORD31” value is on record as 319.01 RFU.
